Data on eight compounds can be found in ChEMBL document CHEMBL1121555, “Quantitative structure-selectivity relationships. Comparison of the inhibition of Escherichia coli and bovine liver dihydrofolate reductase by 5-(substituted-benzyl)-2,4-diaminopyrimidines” (J Med Chem, 1980).

The first series in a line: Compound was evaluated for the partition coefficients probably at the […] at the aqueous phase 0.1 N HCl. Particulars: 0.1 N HCl (aqueous phase). The series is classed as physicochemical.
One may read the logD as the decadic logarithm of the distribution of all forms, ionised or not, between an organic phase and buffer at a given pH. Low values mean lower lipophilicity, high ones higher lipophilicity. For the compound `Nc1ncc(Cc2cccc(Cl)c2)c(N)n1`, the logD was -0.36.

Regarding `Nc1ncc(Cc2cccc(F)c2)c(N)n1`, the logD was -0.8.

For the compound `CC(=O)Nc1ccc(Cc2cnc(N)nc2N)cc1`, the logD was -1.94.

Consider `Cc1cccc(Cc2cnc(N)nc2N)c1`, for which the pH-dependent lipophilicity (logD) was -0.51.

Take `Nc1ncc(Cc2ccccc2)c(N)n1`: the logD is -1.03.

As for `Nc1ncc(Cc2ccc([N+](=O)[O-])cc2)c(N)n1`, the log distribution coefficient (logD) was -1.03.

`Nc1ncc(Cc2cccc(OCc3ccccc3)c2)c(N)n1` showed a logD of 0.53.

On to `COc1cccc(Cc2cnc(N)nc2N)c1`, for which the logD is -0.92.

The nature of a further series: Compound was evaluated for the partition coefficients probably at the pH >> 7.2 at the aqueous phase 0.1 N NaOH. Particulars: 0.1 N NaOH (aqueous phase).
The compound `Nc1ncc(Cc2ccccc2)c(N)n1` came in with a pH-dependent lipophilicity (logD) of 1.58.
